Measured values taken from patent US12264173B2 (GILEAD SCIENCES, INC., priority 2020, dated 2025).
pEC50: −log10 of the molar value. Read-outs that look alike come from different tables or passages of the source.

Legend:
Type in all cases: cell-based
HRV16 = HRV16 HeLa EC50 (cytopathic effect in H1-HeLa cells); settings: read-out: HRV16 HeLa EC50
How it was run: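 Read-out is luminescent cell viability (CellTiter-Glo) after 96 h of infection at 33 °C, scaled between uninfected and infected-untreated wells. Before infection with titrated virus, compounds went onto H1-HeLa cells as triplicate 3-fold dilution series.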

DENV2 replicon = experiment: DENV-2 Huh-7 Rep EC50 (replicon luminescence)
How it was run: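 EC50 derived from luminescence dose-response, normalised to DMSO-only 0% inhibition wells, after 1.5 h with EnduRen substrate. Compounds were first exposed for 48 h at 37° C to DENV2 replicon Huh-7 cells (5,000/well).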

RSV strain A2 = experiment: microbe, parasite or virus in culture; settings: read-out: RSV HEp-2 EC50
How it was run: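 Cytopathic-effect protection assay: HEp-2 cells (50,000/mL) infected with pre-titered RSV A2 onto 3-fold serial compound dilutions, incubated 4 days at 37° C. Cell viability read by CellTiter-Glo luminescence; percent inhibition derived against 0% and 100% virus-inhibition controls.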

RSV A2 = experiment: RSV NHBE EC50 (RSV A2 antiviral assay in NHBE cells); settings: read-out: RSV NHBE EC50
How it was run: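 Step 1: seed NHBE cells (7,500/well, BEGM) overnight. Step 2: add 3-fold diluted compound, DMSO 0.05%. Step 3: infect with RSV A2, 1×10^4.5 TCID/mL; incubate 4 days, 37° C. Step 4: CellTiter-Glo luminescence.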

[1] = 96 h, Table 3, H1-HeLa cells, 96 h
[2] = Dengue virus, DENV2, Huh-7, 48 h, read-out: DENV-2 REP Huh7 EC50
[3] = human respiratory syncytial virus, HEp-2, 96 h, Table 3, HEp-2 cells, RSV A2, 4 days
[4] = human respiratory syncytial virus, NHBE, 96 h, Table 3, NHBE cells, RSV A2, 4 days
[5] = Table 3, Huh-7 DENV2 replicon cells, 48 hours, read-out: DENV-2 REP Huh7 EC50
[6] = Table 3, HEp-2 cells, RSV A2, 4 days
[7] = Table 3, NHBE cells, RSV A2, 4 days
[8] = Dengue virus, DENV2, Huh-7, 48 h, read-out: DENV-2 REP Huh7 EC50, Table 3, Huh-7 DENV2 replicon cells, 48 hours

Compound | pEC50 (HRV16; [1]) | pEC50 (DENV2 replicon; [2]) | pEC50 (RSV strain A2; [3]) | pEC50 (RSV A2; [4]) | further results
CCC(=O)O[C@H]1[C@H](c2ccc3c(N)ncnn23)O[C@](C#N)(COP(=O)(N[C@@H](C)C(=O)OCC2COC2)Oc2ccccc2)[C@H]1OC(=O)CC (stereo partly drawn) [Example 203, (2R,3S,4S,5S)-5-(4-aminopyrrolo[2,1-f][1,2,4]triazin-7-yl)-2-cyano-2-((((((S)-1-(oxetan-3-ylmethoxy)-1-oxopropan-2-yl)amino)(phenoxy)phosphoryl)oxy)methyl) tetrahydrofuran-3,4-diyl dipropionate] | 6.44 | 5.02 | 7.02 | 7.42 | 
COCC(=O)O[C@H]1[C@H](c2ccc3c(N)ncnn23)O[C@](C#N)(CO[P@@](=O)(N[C@@H](C)C(=O)OC(C)C)Oc2ccccc2)[C@H]1OC(=O)COC [Example 151, (2R,3S,4S,5S)-5-(4-aminopyrrolo[2,1-f][1,2,4]triazin-7-yl)-2-cyano-2-((((S)-(((S)-1-isopropoxy-1-oxopropan-2-yl)amino)(phenoxy)phosphoryl)oxy)methyl) tetrahydrofuran-3,4-diyl bis(2-methoxyacetate)] | 6.02 | 4.71 | 6.65 | 6.12 | 
CO[C@@H](C)C(=O)O[C@H]1[C@H](c2ccc3c(N)ncnn23)O[C@](C#N)(CO[P@@](=O)(N[C@@H](C)C(=O)OC(C)C)Oc2ccccc2)[C@H]1OC(=O)[C@H](C)OC [Example 158, (2R,3S,4S,5S)-5-(4-aminopyrrolo[2,1-f][1,2,4]triazin-7-yl)-2-cyano-2-((((S)-(((S)-1-isopropoxy-1-oxopropan-2-yl)amino)(phenoxy)phosphoryl)oxy)methyl) tetrahydrofuran-3,4-diyl (2S,2'S)-bis(2-methoxypropanoate)] | 6.14 | 4.80 | 6.86 | 7.28 | 
CC(=O)OC1[C@H](c2ccc3c(N)ncnn23)O[C@](C#N)(COP(=O)(N[C@@H](C)C(=O)OCC2CCN(CC(F)(F)F)CC2)Oc2ccccc2)[C@H]1OC(C)=O (stereo in doubt) [Example 118, (2R,3S,4R,5S)-5-(4-aminopyrrolo[2,1-f][1,2,4]triazin-7-yl)-2-cyano-2-((((((S)-1-oxo-1-((1-(2,2,2-trifluoroethyl)piperidin-4-yl)methoxy)propan-2-yl)amino)(phenoxy)phosphoryl)oxy)methyl)tetrahydrofuran-3,4-diyl diacetate] | 6.13 | 4.26 | 6.65 | 7.59 | 
CCC(=O)O[C@H]1[C@H](c2ccc3c(N)ncnn23)O[C@](C#N)(COP(=O)(N[C@@H](C)C(=O)OC2COC2)Oc2ccccc2)[C@H]1OC(=O)CC (single isomer, unassigned) [Example 175] |  |  |  |  | pEC50 (HRV16; Table 3, H1-HeLa cells, 96 h): 7.07; pEC50 (DENV2 replicon; [5]): 5.02; pEC50 (RSV strain A2; [6]): 7.06; pEC50 (RSV A2; [7]): 7.77
CCC(=O)O[C@H]1[C@H](c2ccc3c(N)ncnn23)O[C@](C#N)(CO[P@@](=O)(N[C@@H](C)C(=O)OCC2CCOCC2)Oc2ccccc2)[C@H]1OC(=O)CC [Example 108] |  |  |  |  | pEC50 (HRV16; Table 3, H1-HeLa cells, 96 h): 6.41; pEC50 (DENV2 replicon; [5]): 4.41; pEC50 (RSV strain A2; [6]): 6.66; pEC50 (RSV A2; [7]): 8.22
COC(=O)[C@H](C)N[P@@](=O)(OC[C@@]1(C#N)O[C@@H](c2ccc3c(N)ncnn23)[C@H](OC(=O)C(C)C)[C@@H]1OC(=O)C(C)C)Oc1ccccc1 (single isomer, unassigned) [Example 139] | 7.01 | 5.28 | 7.41 | 8.10 | 
CC(C)OC(=O)[C@H](C)N[P@](=O)(OC[C@@]1(C#N)O[C@@H](c2ccc3c(N)ncnn23)[C@H](OC(=O)C2CCOCC2)[C@@H]1OC(=O)C1CCOCC1)Oc1ccccc1 [Example 156, (2R,3S,4S,5S)-5-(4-aminopyrrolo[2,1-f][1,2,4]triazin-7-yl)-2-cyano-2-((((S)-(((S)-1-isopropoxy-1-oxopropan-2-yl)amino)(phenoxy)phosphoryl)oxy)methyl) tetrahydrofuran-3,4-diyl bis(tetrahydro-2H-pyran-4-carboxylate)] | 4.66 | < 4.30 | 6.34 | < 5.30 | 
CC(C)C(=O)O[C@H]1[C@H](c2ccc3c(N)ncnn23)O[C@](C#N)(COP(=O)(N[C@@H](C)C(=O)OC2COC2)Oc2ccccc2)[C@H]1OC(=O)C(C)C (stereo partly drawn) [Example 184, (2R,3S,4S,5S)-5-(4-aminopyrrolo[2,1-f][1,2,4]triazin-7-yl)-2-cyano-2-((((((S)-1-(oxetan-3-yloxy)-1-oxopropan-2-yl)amino)(phenoxy)phosphoryl)oxy)methyl) tetrahydrofuran-3,4-diyl bis(2-methylpropanoate)] | 7.24 | 5.23 | 7.10 | 7.89 | pEC50 (HRV16; HeLa, Table 5 comparative activity, 2',3'-OH vs -OC(O)iPr): 7.24; pEC50 (RSV strain A2; human respiratory syncytial virus, HEp-2, Table 5 comparative activity, 2',3'-OH vs -OC(O)iPr): 7.10; pEC50 (RSV A2; human respiratory syncytial virus, NHBE, Table 5 comparative activity, 2',3'-OH vs -OC(O)iPr): 7.89
CC(=O)O[C@H]1[C@H](c2ccc3c(N)ncnn23)O[C@](C#N)(CO[P@@](=O)(N[C@@H](C)C(=O)OCC2CCN(CC(F)(F)F)CC2)Oc2ccccc2)[C@H]1OC(C)=O [Example 119] |  |  |  |  | pEC50 (HRV16; Table 3, H1-HeLa cells, 96 h): 5.98; pEC50 (DENV2 replicon; [5]): 4.15; pEC50 (RSV strain A2; [6]): 6.27; pEC50 (RSV A2; [7]): 7.57
CCC(=O)OC1C(c2ccc3c(N)ncnn23)OC(C#N)(COP(=O)(NC(C)C(=O)OCC2CCC2)Oc2ccccc2)C1OC(=O)CC (stereo not shown) [Example 93] |  |  |  |  | pEC50 (HRV16; Table 3, H1-HeLa cells, 96 h): 6.77; pEC50 (DENV2 replicon; [5]): 4.89; pEC50 (RSV strain A2; [6]): 7.32; pEC50 (RSV A2; [7]): 7.60
COCCOCC(=O)O[C@H]1[C@H](c2ccc3c(N)ncnn23)O[C@](C#N)(CO[P@@](=O)(N[C@@H](C)C(=O)OC(C)C)Oc2ccccc2)[C@H]1OC(=O)COCCOC [Example 161, (2R,3S,4S,5S)-5-(4-aminopyrrolo[2,1-f][1,2,4]triazin-7-yl)-2-cyano-2-((((S)-(((S)-1-isopropoxy-1-oxopropan-2-yl)amino)(phenoxy)phosphoryl)oxy)methyl) tetrahydrofuran-3,4-diyl bis(2-(2-methoxyethoxy)acetate)] | 5.91 | 4.65 | 6.82 | 5.94 | 
COC(=O)[C@H](C)NP(=O)(N[C@@H](C)C(=O)OC)OC[C@@]1(C#N)O[C@@H](c2ccc3c(NC(C)=O)ncnn23)[C@H](OC(C)=O)[C@@H]1OC(C)=O [Example 128] | < 4.30 |  | 4.73 | < 5.38 | pEC50 (DENV2 replicon; [8]): < 4.30
CCCC(=O)O[C@H]1[C@H](c2ccc3c(N)ncnn23)O[C@](C#N)(COP(=O)(N[C@@H](C)C(=O)OC)N[C@@H](C)C(=O)OC)[C@H]1OC(=O)CCC [Example 212, (2R,3S,4S,5S)-5-(4-Aminopyrrolo[2,1-f][1,2,4]triazin-7-yl)-2-(((bis(((S)-1-methoxy-1-oxopropan-2-yl)amino)phosphoryl)oxy)methyl)-2-cyanotetrahydrofuran-3,4-diyl dibutyrate] | 5.21 |  | 5.93 | 6.35 | pEC50 (DENV2 replicon; [8]): < 4.15
CCOC(=O)[C@H](C)NP(=O)(N[C@@H](C)C(=O)OCC)OC[C@@]1(C#N)O[C@@H](c2ccc3c(N)ncnn23)[C@H](OC(=O)CC)[C@@H]1OC(=O)CC [Example 124, ((2R,3S,4R,5S)-5-(4-aminopyrrolo[2,1-f][1,2,4]triazin-7-yl)-2-cyano-3,4-dipropionatetetrahydrofuran-2-yl)methyl bis-ethyl L-alaninate phosphate] | 5.08 |  | 5.68 | 6.82 | pEC50 (DENV2 replicon; [8]): < 4.30
CCC(=O)O[C@H]1[C@H](c2ccc3c(N)ncnn23)O[C@](C#N)(CO[P@](=O)(N[C@@H](C)C(=O)OC)Oc2ccccc2)[C@H]1OC(=O)CC (single isomer, unassigned) [Example 142] | 6.45 | 4.95 | 7.03 | 7.80 | 
